Source: PMC9701179, “New tricyclic systems as photosensitizers towards triple negative breast cancer cells” (Archives of Pharmacal Research, 2022)
Read-outs that look alike come from different tables or passages of the source.

Assays:
MDA-MB-231 cells [1] = test: MTT cytotoxicity/photocytotoxicity test on human TNBC MDA-MB-231 cells; format: cell-based; settings: Homo sapiens
Method: The irradiation device used for the irradiation of cell cultures during the assays was a black box equipped with two Philips UVA lamps with an irradiance of 17 mW cm^−2 and a centered emission peak at 365 nm; UVA irradiance was measured using a Waldmann Variocontrol radiometer, equipped with a UVA sensor. The box was maintained at room temperature inside with a fan and the multiwell plates were placed onto a water-refrigerated metal block.
Human triple negative (TNBC) breast MDA-MB-231 carcinoma cells were obtained from American Type Culture Collection (ATCC, Rockville, MD, USA). Human embryonic kidney HEK293 cells were obtained from the European Collection of Cell Cultures (ECACC, Salisbury, UK). Cell lines were maintained in the logarithmic phase at 37 °C in a 5% CO2 atmosphere using the following culture media containing 10% foetal calf serum (Euroclone, Milan, Italy), antibiotics (50 units/mL penicillin and 50 μg/mL streptomycin) and 2 mM l-glutamine: (i) RPMI-1640 medium (Euroclone, Milan, Italy) for MDA-MB-231 4 cells; (ii) DMEM (Euroclone, Milan, Italy) for HEK293 cells.
Cells (5–8 × 10^3 cells/well, dependent upon the growth characteristics of the cell line) were seeded in 96-well microplates in growth medium (100 μL). After 24 h, the medium was removed and replaced with a fresh one containing the compound to be studied at the appropriate concentration. Triplicate cultures were established for each treatment. For photocytotoxicity studies, after 1 h of incubation the medium was replaced with PBS and cells were treated with 2.0 J cm^−2 of UVA light. After irradiation, PBS was replaced with complete proliferation media. For pre-irradiation studies, instead, compounds in PBS were irradiated with 2.0 J cm^−2 of UVA light and subsequently cells were treated with pre-irradiated solutions. Following 24 h, each well was treated with 10 μL of a 5 mg/mL MTT saline solution, and following 5 h of incubation, 100 μL of a sodium dodecyl sulfate (SDS) solution in HCl 0.01 M were added. After an overnight incubation, cell growth inhibition was detected by measuring the absorbance of each well at 570 nm using a Bio-Rad 680 microplate reader. Mean absorbance for each drug dose was expressed as a percentage of the control untreated well absorbance and plotted against drug concentration. IC50 values, the drug concentrations that reduce the mean absorbance at 570 nm to 50% of those in the untreated control wells, were calculated by the four-parameter logistic (4-PL) model. Evaluation was based on means from at least four independent experiments.
The new synthetized pyrrolo[1,2-h][1,7]naphthyridinones 7 and pyrido[2,3-c]pyrrolo[1,2-a]azepinones 8 were screened for their cytotoxicity (in the dark) and photocitotoxicity (upon UVA light irradiation at 2.0 J/cm^2) profile on human TNBC cells, MDA-MB-231. The cytotoxicity/photocytotoxicity parameters, expressed in terms of IC50 values obtained by MTT test after 24 h of drug-exposure, are listed in Table 2.

MDA-MB-231 cells [2] = test: Intracellular ROS production (CM-H2DCFDA) under UVA; format: cell-based, human; settings: MDA-MB-231, 25 µM, 90 min, UVA 2.0 J/cm^2; antimycin 3 µM positive control
Method: The production of ROS was measured in MDA-MB-231 cells (10^4 per well) grown for 24 h in a 96-well plate in RPMI medium without phenol red (Merk, Germany). Cells were then washed with PBS and loaded with 10 μM 5-(and-6)-chloromethyl-2′,7′-dichlorodihydrofluorescein diacetate acetyl ester (CM–H2DCFDA) (Molecular Probes-Invitrogen, Eugene, OR) for 45 min, in the dark. Afterwards, cells were washed with PBS and incubated with tested compounds (25 µM) for 90 min and after that exposed to UVA light (2.0 J/cm^2). Fluorescence increase was estimated utilizing the wavelengths of 485 nm (excitation) and 527 nm (emission) in a VICTOR X3 (PerkinElmer, USA) plate reader. Antimycin (3 μM, Merk), a potent inhibitor of Complex III in the electron transport chain, was used as positive control.
ROS production under light (UVA, 2.0 J/cm^2) was evaluated in MDA-MB-231 cell samples treated with increasing concentrations of tested compounds or antimycin, a potent inhibitor of Complex III of mitochondria electron chain, used as a positive control under the same experimental conditions (Fig. 4).
Fig. 4 Cellular ROS production (A) and total thiol redox state (B). A Effect of UVA activated tested compounds (25 µM) or antimycin (3 µM) on hydrogen peroxide formation in MDA-MB-231 cancer cells. B Sulfhydryl content in MDA-MB-231 cancer cells incubated for 24 h with UVA activated tested compounds. The sulfhydryl group amount was determined by the DTNB assay. Error bars indicate S.D

MDA-MB-231 cells [3] = test: Mitochondrial membrane potential (Mito-ID kit); format: cell-based, human; settings: MDA-MB-231, UVA 2.0 J/cm^2; CCCP positive control
Method: The ΔΨ was assayed using the Mito-ID® Membrane Potential Kit according to the manufacturer’s instructions (Enzo Life Sciences, Farmingdale, NY, USA) as previously described. Briefly, MDA-MB-231 cells (8 × 10^3 per well) were seeded in 96-well plates; after 24 h, cells were washed with PBS and loaded with Mito-ID Detection Reagent for 30 min at 37 °C in the dark. Afterwards, cells were incubated with increasing concentrations of tested compounds for 90 min and after that exposed to UVA light (2.0 J/cm^2). CCCP (Carbonyl cyanide 3-chlorophenyl-hydrazone) was used as positive control. Fluorescence intensity was estimated using a VICTOR X3 (PerkinElmer, USA) plate reader at 490 (excitation) and 590 nm (emission).
Induction of ROS production can in turn prompt the collapse of mitochondrial membrane potential as well as loss of mitochondrial integrity and functioning. […] MDA-MB-231 TNBC cells were treated with tested compounds upon UVA irradiation and the percentage of cells with hypopolarized mitochondrial membrane potential was determined fluorometrically by means of the Mito-ID® Membrane Potential Kit.
Fig. 5 Effects on mitochondrial membrane potential (A) and cell death induction (B) in human breast MDA-MB-231 cancer cells. A Cells were treated with 7h and 8e and stained with TMRM (10 nM). Fluorescence was estimated at 490 nm (excitation) and 590 nm (emission). Data are the means of five independent experiments. Error bars indicate S.D. * P < 0.05. B Cells were treated with concentrations of 7h and 8e equal to IC50 for 24 h and stained with the fluorescent dyes Hoechst 33342 and PI

SMILES: CC(C)OC(=O)c1ccc2n1CCCc1cc(S(=O)(=O)c3ccccc3)c(=O)n(C)c1-2 [Compound 8d, Propan-2-yl 3-(benzenesulfonyl)-1-methyl-2-oxo-1,5,6,7-tetrahydro-2H-pyrido[2,3-c]pyrrolo[1,2-a]azepine-9-carboxylate]
- IC50 (MDA-MB-231 cells [1]; MDA-MB-231, in the dark, 1 h pre-treatment, recovered for total 24 h, read-out: Dark IC50 (µM) ± S.D): > 50 µM
- IC50 (MDA-MB-231 cells [1]; light or radiation study, MDA-MB-231, 1 h pre-treatment, UVA 2.0 J/cm^2, recovered for total 24 h, read-out: UVA (2.0 J/cm^2) IC50 (µM) ± S.D): > 50 µM
- Cellular ROS production (hydrogen peroxide formation) (MDA-MB-231 cells [2]): hardly effective in inducing any ROS basal level production increase
- Cells with depolarized mitochondria (mitochondrial membrane potential) (MDA-MB-231 cells [3]): did not induce a substantial change in mitochondrial membrane potential
